What was measured:
Type in all cases: in vivo
Conditions in all cases: 250 g/ha, evaluated after 13 days
[1] = tested on: Amaranthus palmeri (AMAPA); experiment: Post-emergence herbicidal glasshouse test
Description: (§1) Seeds of a variety of test species are sown in standard soil in pots Amaranthus palmeri (AMAPA), Amaranthus retoflexus (AMARE), Echinochloa crus-galli (ECHCG), Ipomoea hederacea (IPOHE), Setaria faberi (SETFA). After cultivation for one day (pre-emergence) or after 8 days cultivation (post-emergence) under controlled conditions in a glasshouse (at 24/16 °C, day/night; 14 hours light; 65% humidity), the plants are sprayed with an aqueous spray solution derived from the formulation of the technical active ingredient in acetone/water (50:50) solution containing 0.5% Tween 20 (polyoxyethelyene sorbitan monolaurate, CAS RN 9005-64-5). Compounds are applied at 250 g/ha unless otherwise stated. The test plants are then grown in a glasshouse under controlled conditions in a glasshouse (at 24/16 °C, day/night; 14 hours light; 65% humidity) and watered twice daily. After 13 days for pre and post-emergence, the test is evaluated for the percentage damage caused to the plant. The biological activities are shown in the following table on a five-point scale (5=81-100%; 4=61-80%; 3=41-60%; 2=21-40%; 1=0-20%).

[2] = tested on: Amaranthus retoflexus (AMARE); experiment: Post-emergence herbicidal glasshouse test
Description: as §1

[3] = tested on: Echinochloa crus-galli (ECHCG); experiment: Post-emergence herbicidal glasshouse test
Description: as §1

[4] = tested on: Ipomoea hederacea (IPOHE); experiment: Post-emergence herbicidal glasshouse test
Description: as §1

[5] = tested on: Amaranthus palmeri (AMAPA); experiment: Pre-emergence herbicidal glasshouse test
Description: as §1

[6] = tested on: Amaranthus retoflexus (AMARE); experiment: Pre-emergence herbicidal glasshouse test
Description: as §1

[7] = tested on: Echinochloa crus-galli (ECHCG); experiment: Pre-emergence herbicidal glasshouse test
Description: as §1

[8] = tested on: Ipomoea hederacea (IPOHE); experiment: Pre-emergence herbicidal glasshouse test
Description: as §1

Setaria faberi (SETFA) [9] = experiment: Post-emergence herbicidal glasshouse test
Description: as §1

Setaria faberi (SETFA) [10] = experiment: Pre-emergence herbicidal glasshouse test
Description: as §1

| Compound | percentage damage caused to the plant (five-point scale), AMAPA [1] | percentage damage caused to the plant (five-point scale), AMARE [2] | percentage damage caused to the plant (five-point scale), ECHCG [3] | percentage damage caused to the plant (five-point scale), IPOHE [4] | percentage damage caused to the plant (five-point scale), AMAPA [5] | percentage damage caused to the plant (five-point scale), AMARE [6] | percentage damage caused to the plant (five-point scale), ECHCG [7] | percentage damage caused to the plant (five-point scale), IPOHE [8] | percentage damage caused to the plant (five-point scale), SETFA (Setaria faberi (SETFA) [9]) | percentage damage caused to the plant (five-point scale), SETFA (Setaria faberi (SETFA) [10]) |
| --- | --- | --- | --- | --- | --- | --- | --- | --- | --- | --- |
| FC(F)c1cc(Cc2ncc(Cl)cn2)n(CCC2CCOC2)n1 (centres unmarked) [Compound 1.001] | 1 (0-20%) | 1 (0-20%) | 1 (0-20%) | 2 (21-40%) | 2 (21-40%) | 1 (0-20%) | 1 (0-20%) | 2 (21-40%) | – | – |
| FC(F)c1cc(Cc2ncc(Cl)cn2)n(CCCC(F)(F)F)n1 [Compound 1.002] | 1 (0-20%) | 2 (21-40%) | 1 (0-20%) | 2 (21-40%) | 5 (81-100%) | 5 (81-100%) | 1 (0-20%) | 3 (41-60%) | – | – |
| FC(F)c1cc(Cc2ncc(Cl)cn2)n(CCC2CC2)n1 [Compound 1.003] | 1 (0-20%) | 1 (0-20%) | 1 (0-20%) | 3 (41-60%) | 4 (61-80%) | 4 (61-80%) | 1 (0-20%) | 1 (0-20%) | – | – |
| FC(F)CCCn1nc(C(F)F)cc1Cc1ncc(Cl)cn1 [Compound 1.004] | 3 (41-60%) | 3 (41-60%) | 1 (0-20%) | 2 (21-40%) | 4 (61-80%) | 4 (61-80%) | 1 (0-20%) | 2 (21-40%) | – | – |
| FC(F)CCCn1nc(C(F)(F)F)cc1Cc1ncc(Cl)cn1 [Compound 1.005, 5-chloro-2-[[2-(4,4-difluorobutyl)-5-(trifluoromethyl)pyrazol-3-yl]methyl]pyrimidine] | – | 5 (81-100%) | 4 (61-80%) | 3 (41-60%) | 5 (81-100%) | 5 (81-100%) | 4 (61-80%) | 5 (81-100%) | 4 (61-80%) | 5 (81-100%) |
| FC(F)(F)CCCn1nc(C(F)(F)F)cc1Cc1ncc(Cl)cn1 [Compound 1.006] | 5 (81-100%) | 5 (81-100%) | 3 (41-60%) | 3 (41-60%) | 5 (81-100%) | 5 (81-100%) | 4 (61-80%) | 3 (41-60%) | 4 (61-80%) | 5 (81-100%) |
| FC(F)c1cc(Cc2ncc(Cl)cn2)n(CCC(F)(F)F)n1 [Compound 1.007] | 3 (41-60%) | 4 (61-80%) | 2 (21-40%) | 3 (41-60%) | 5 (81-100%) | 5 (81-100%) | 2 (21-40%) | 4 (61-80%) | – | – |
| FC(F)CCn1nc(C(F)F)cc1Cc1ncc(Cl)cn1 [Compound 1.008] | 3 (41-60%) | 3 (41-60%) | 1 (0-20%) | 4 (61-80%) | 5 (81-100%) | 5 (81-100%) | 4 (61-80%) | 3 (41-60%) | 1 (0-20%) | 4 (61-80%) |
| FC(F)(F)CCn1nc(C(F)(F)F)cc1Cc1ncc(Cl)cn1 [Compound 1.010] | 4 (61-80%) | 5 (81-100%) | 4 (61-80%) | 3 (41-60%) | 5 (81-100%) | 5 (81-100%) | 5 (81-100%) | 5 (81-100%) | – | – |
| CCCCn1nc(C(F)F)cc1Cc1ncc(Cl)cn1 [Compound 1.011] | 2 (21-40%) | 2 (21-40%) | 1 (0-20%) | 2 (21-40%) | 5 (81-100%) | 5 (81-100%) | 2 (21-40%) | 3 (41-60%) | – | – |
| CCCCn1nc(C(F)F)cc1Cc1ncc(Cl)cc1F [Compound 1.013] | 2 (21-40%) | 2 (21-40%) | 1 (0-20%) | 2 (21-40%) | 3 (41-60%) | 4 (61-80%) | 3 (41-60%) | 2 (21-40%) | 1 (0-20%) | 3 (41-60%) |
| Fc1cc(Cl)cnc1Cc1cc(C(F)(F)F)nn1CCC(F)(F)F [Compound 1.018] | 4 (61-80%) | 1 (0-20%) | 4 (61-80%) | 4 (61-80%) | 5 (81-100%) | 5 (81-100%) | 5 (81-100%) | 3 (41-60%) | 4 (61-80%) | 5 (81-100%) |
| CC(C)(C#N)CCCn1nc(C(F)(F)F)cc1Cc1ncc(Cl)cn1 [Compound 1.019] | 1 (0-20%) | 1 (0-20%) | 1 (0-20%) | 1 (0-20%) | 1 (0-20%) | 1 (0-20%) | 1 (0-20%) | 1 (0-20%) | 1 (0-20%) | 1 (0-20%) |
| CCCCn1nc(C(F)(F)Cl)cc1Cc1ncc(Cl)cn1 [Compound 1.020, 2-[[2-butyl-5-[chloro(difluoro)methyl]pyrazol-3-yl]methyl]-5-chloro-pyrimidine] | 4 (61-80%) | 5 (81-100%) | 2 (21-40%) | 2 (21-40%) | 5 (81-100%) | 5 (81-100%) | 4 (61-80%) | 2 (21-40%) | 1 (0-20%) | 4 (61-80%) |

From patent US20260365634A1, “HERBICIDAL PYRAZOLE COMPOUNDS” (SYNGENTA CROP PROTECTION AG, priority 2022, published 2026)
